Experimental data published in publication PMC4770093, “The role of kinetic context in apparent biased agonism at GPCRs” (Nature Communications, 2016).
Several values for one entry are separate records, joined by “and”; a condition that tells them apart may be missing. Equal values may be shown once. Read-outs that look alike come from different tables or passages of the source.

Legend:
D2LR [1] = target: T1, D2LR (Homo sapiens, UniProt P14416); assay: ERK1/2 phosphorylation assay (Alphascreen SureFire); assay type: cell-based; set-up: expressed in transfected cells; settings: for alpahscreen assay to detect pERK1/2, counts: agonist 10 μM (cariprazine 1 μM), single experiments n=1 to n=4
Procedure: ERK1/2 phosphorylation was measured using the Alphascreen SureFire ERK kit (PerkinElmer, Waltham, USA). Cells were seeded into 96-well plates at a density of 50,000 cells per well. After 5–7 h, cells were washed with PBS and incubated in serum-free DMEM overnight before assaying. Dose–response experiments were performed for each ligand at 37 °C in the presence of 0.1% ascorbic acid. […] The plate was shaken for 5 min at room temperature (RT) before transferring 5 μl of the lysates to a white 384-well Proxiplate (PerkinElmer, Waltham, USA). […] Plates were read using a Fusion-TM plate reader (PerkinElmer, Waltham, USA).

D2LR [2] = target: T1, D2LR; assay: Inhibition of forskolin-induced cAMP production (BRET CAMYEL biosensor); settings: for EC50: pEC50 cAMP; for Emax: relative to the maximal response of ropinirole; for Inhibition of cAMP production measured using a CAMYEL BRET biosensor, Net BRET: single experiments n = 1, 2, 3
[3] = target: SNAP-tagged human dopamine D2L (Homo sapiens, UniProt P14416); assay: Tag-lite PPHT-red competition kinetic binding (HTRF); settings: PPHT-red tracer, Tag-lite
Procedure: To terbium label the SNAP-CHO-D2L cells, cell culture medium was removed from the T175 cm^2 flasks containing confluent adherent SNAP-CHO-D2L cells. Twelve millilitres of Tag-lite labelling medium containing 100 nM of SNAP-Lumi4-Tb was added to the flask and incubated for 1 h at 37 °C under 5% CO2. Cells were then washed 2 × in 15 ml PBS (GIBCO, Invitrogen, Paisley, UK) to remove the excess of SNAP-Lumi4-Tb and detached using 5 ml of enzyme-free Hank's-based cell dissociation buffer (GIBCO, Invitrogen, Paisley, UK) and collected in a vial containing 5 ml of DMEM/Nutrient F-12 Ham, 2 mM glutamine supplemented 10% FCS. Cells were pelleted by centrifugation (5 min at 1,500 r.p.m.) and the pellets were frozen to −80 °C before preparation of membranes.
All subsequent steps described were conducted at 4 °C, to avoid receptor degradation. Twenty millilitres of wash buffer (10 mM HEPES and 10 mM EDTA pH 7.4) was added to the pellet of terbium-labelled cells (equivalent to 1 × t175 cm^2). […] The supernatant was discarded and the pellet was homogenized and centrifuged as described above in wash buffer. The final pellet was suspended in ice-cold 10 mM HEPES and 0.1 mM EDTA pH 7.4, at a concentration of 5–10 mg m^−1. Protein concentration was determined by the bicinchoninic acid assay using BSA as a standard and aliquots maintained at −80 °C until required. Before their use, the frozen membranes were thawed and the membranes suspended in the assay buffer at a membrane concentration of 0.1 mg m^−1.
GppNHp was included to remove the G protein-coupled population of receptors that can result in two binding sites in membrane preparations, because the Motulsky–Mahan model is only appropriate for ligands competing at a single site. […] Both fluorescent ligands and unlabelled compounds were diluted in the binding assay buffer.
Kinetics acquisitions at intervals of 20 s were recorded using the standard settings of the reader for HTRF measurements. […] Specific binding was determined by subtracting the nonspecific HTRF ratio from the total HTRF ratio.
To accurately determine association rate (kon) and dissociation rate (koff) values, the observed rate of association (kob) was calculated using at least four different concentrations of PPHT-red. The appropriate concentration of PPHT-red was incubated in a 384-well Optiplate with human SNAP-D2LR-CHO cell membranes (2 μg per well) in assay binding buffer at 37 °C (final assay volume, 40 μl). The degree of PPHT-red bound to the receptor was assessed at multiple time points by HTRF detection, to allow construction of association kinetic curves. The resulting data were globally fitted to the association kinetic model (equation (8)) to derive a single best-fit estimate for kon and koff as described under ‘Data analysis'.
On the same 384-well Optiplate plate, the kinetic parameters of unlabelled ligand were assessed using a competition kinetic binding assay. This approach involves the simultaneous addition of both fluorescent ligand and competitor to receptor preparation so that at t=0 all receptors are unoccupied. […] The degree of PPHT-red bound to the receptor was assessed at multiple time points by HTRF detection. Nonspecific binding was determined as the amount of HTRF signal detected in the presence of spiperone (1 μM) and was subtracted from each time point. Each time point was conducted on the same 384-well plate incubated at 37 °C with shaking (100 r.p.m.) after every cycle.
Data were globally fitted using equation (7), to simultaneously calculate kon and koff.

[4] = 5 minute timepoint, Flp-In-CHO-D2LR
[5] = 5 minute timepoint, dopamine as reference agonist

T1 sequence (P14416 whole entry, the tested form may be a part): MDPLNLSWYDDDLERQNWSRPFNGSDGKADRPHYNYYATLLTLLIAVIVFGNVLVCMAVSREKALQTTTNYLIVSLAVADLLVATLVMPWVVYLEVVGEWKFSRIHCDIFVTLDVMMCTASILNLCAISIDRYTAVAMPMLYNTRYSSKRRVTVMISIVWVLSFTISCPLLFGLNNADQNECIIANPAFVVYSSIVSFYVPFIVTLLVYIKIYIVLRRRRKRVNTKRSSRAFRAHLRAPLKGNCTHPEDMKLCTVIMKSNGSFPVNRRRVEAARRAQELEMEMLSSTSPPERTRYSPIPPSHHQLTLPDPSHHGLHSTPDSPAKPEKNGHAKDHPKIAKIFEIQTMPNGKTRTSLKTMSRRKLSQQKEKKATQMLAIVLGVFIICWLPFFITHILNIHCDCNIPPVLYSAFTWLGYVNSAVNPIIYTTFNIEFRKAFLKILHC
Chain of SNAP-tagged human dopamine D2L (P14416 whole entry): as the sequence (P14416 whole entry, the tested form may be a part) above

Structure (SMILES): O=c1[nH]c2cccc(N3CCN(Cc4cccc(-c5ccccc5)c4)CC3)c2o1 [Bifeprunox, bifeprunox]
- Log(τ/KA) pERK1/2 (D2LR [1]; [4]): 7.32 ± 0.10
- ΔLog(τ/KA) pERK1/2 (D2LR [1]; [5]): -1.24 ± 0.11
- alpahscreen assay to detect pERK1/2, counts (D2LR [1]; time 10 mins): 15.6263 counts and 16.6076 counts and 20.0466 counts and 28.1436 counts
- alpahscreen assay to detect pERK1/2, counts (D2LR [1]; time 15 mins): 10.0482 counts and 8.477 counts and 14.6057 counts and 15.1817 counts
- Log(τ/KA) cAMP (D2LR [2]; [4]): 7.88 ± 0.05
- ΔLog(τ/KA) cAMP (D2LR [2]; [5]): -0.18 ± 0.07
- EC50 (D2LR [2]; 2 min): 25.1 nM
- EC50 (D2LR [2]; 5 min): 12.3 nM
- EC50 (D2LR [2]; 10 min): 7.41 nM
- EC50 (D2LR [2]; 15 min): 5.37 nM
- EC50 (D2LR [2]; 30 min): 2.4 nM
- EC50 (D2LR [2]; 45 min): 2.75 nM
- EC50 (D2LR [2]; 60 min): 3.09 nM
- EC50 (D2LR [2]; 75 min): 1.58 nM
- EC50 (D2LR [2]; 90 min): 2.04 nM
- Emax (D2LR [2]; read-out: Emax cAMP, 2 min): 89 ± 2%
- Emax (D2LR [2]; read-out: Emax cAMP, 5 min): 92 ± 2%
- Emax (D2LR [2]; read-out: Emax cAMP, 10 min): 91 ± 2%
- Emax (D2LR [2]; read-out: Emax cAMP, 15 min): 89 ± 2.4%
- Emax (D2LR [2]; read-out: Emax cAMP, 30 min): 89 ± 1.7%
- Emax (D2LR [2]; read-out: Emax cAMP, 45 min): 88 ± 2%
- Emax (D2LR [2]; read-out: Emax cAMP, 60 min): 81 ± 2%
- Emax (D2LR [2]; read-out: Emax cAMP, 75 min): 90 ± 2.5%
- Emax (D2LR [2]; read-out: Emax cAMP, 90 min): 88 ± 2.5%
- Inhibition of cAMP production measured using a CAMYEL BRET biosensor, Net BRET (D2LR [2]; time 2.21667 mins): 0.08914 and 0.1211 and 0.09318
- Inhibition of cAMP production measured using a CAMYEL BRET biosensor, Net BRET (D2LR [2]; time 2.58333 mins): 0.103 and 0.1317 and 0.09421
- Inhibition of cAMP production measured using a CAMYEL BRET biosensor, Net BRET (D2LR [2]; time 2.95 mins): 0.1113 and 0.1351 and 0.0964
- Inhibition of cAMP production measured using a CAMYEL BRET biosensor, Net BRET (D2LR [2]; time 3.31667 mins): 0.1109 and 0.1416 and 0.1166
- Inhibition of cAMP production measured using a CAMYEL BRET biosensor, Net BRET (D2LR [2]; time 3.68333 mins): 0.1141 and 0.143 and 0.1124
- Inhibition of cAMP production measured using a CAMYEL BRET biosensor, Net BRET (D2LR [2]; time 4.05 mins): 0.1231 and 0.1563 and 0.1162
- Inhibition of cAMP production measured using a CAMYEL BRET biosensor, Net BRET (D2LR [2]; time 4.41667 mins): 0.1255 and 0.1611 and 0.116
- Inhibition of cAMP production measured using a CAMYEL BRET biosensor, Net BRET (D2LR [2]; time 4.78333 mins): 0.1306 and 0.1617 and 0.1229
- Inhibition of cAMP production measured using a CAMYEL BRET biosensor, Net BRET (D2LR [2]; time 5.15 mins): 0.1492 and 0.1604 and 0.1179
- Inhibition of cAMP production measured using a CAMYEL BRET biosensor, Net BRET (D2LR [2]; time 5.51667 mins): 0.135 and 0.1611 and 0.1193
- Inhibition of cAMP production measured using a CAMYEL BRET biosensor, Net BRET (D2LR [2]; time 5.88333 mins): 0.1401 and 0.1595 and 0.123
- Inhibition of cAMP production measured using a CAMYEL BRET biosensor, Net BRET (D2LR [2]; time 6.25 mins): 0.1298 and 0.1539 and 0.1222
- Inhibition of cAMP production measured using a CAMYEL BRET biosensor, Net BRET (D2LR [2]; time 6.61667 mins): 0.1365 and 0.1594 and 0.1215
- Inhibition of cAMP production measured using a CAMYEL BRET biosensor, Net BRET (D2LR [2]; time 6.98333 mins): 0.1365 and 0.1586 and 0.1225
- Inhibition of cAMP production measured using a CAMYEL BRET biosensor, Net BRET (D2LR [2]; time 7.35 mins): 0.1382 and 0.1575 and 0.1195
- Inhibition of cAMP production measured using a CAMYEL BRET biosensor, Net BRET (D2LR [2]; time 7.71667 mins): 0.1358 and 0.1585 and 0.1189
- Inhibition of cAMP production measured using a CAMYEL BRET biosensor, Net BRET (D2LR [2]; time 8.08333 mins): 0.1415 and 0.1636 and 0.1191
- Inhibition of cAMP production measured using a CAMYEL BRET biosensor, Net BRET (D2LR [2]; time 8.45 mins): 0.1387 and 0.16 and 0.1143
- Inhibition of cAMP production measured using a CAMYEL BRET biosensor, Net BRET (D2LR [2]; time 8.81667 mins): 0.1483 and 0.1622 and 0.1213
- Inhibition of cAMP production measured using a CAMYEL BRET biosensor, Net BRET (D2LR [2]; time 9.18333 mins): 0.1415 and 0.1645 and 0.1136
- Inhibition of cAMP production measured using a CAMYEL BRET biosensor, Net BRET (D2LR [2]; time 9.55 mins): 0.1361 and 0.1571 and 0.122
- Inhibition of cAMP production measured using a CAMYEL BRET biosensor, Net BRET (D2LR [2]; time 9.91667 mins): 0.1368 and 0.1537 and 0.1212
- Inhibition of cAMP production measured using a CAMYEL BRET biosensor, Net BRET (D2LR [2]; time 10.2833 mins): 0.1433 and 0.1558 and 0.1185
- Inhibition of cAMP production measured using a CAMYEL BRET biosensor, Net BRET (D2LR [2]; time 10.65 mins): 0.1418 and 0.1582 and 0.1222
- Inhibition of cAMP production measured using a CAMYEL BRET biosensor, Net BRET (D2LR [2]; time 11.0167 mins): 0.1356 and 0.1444 and 0.1266
- Inhibition of cAMP production measured using a CAMYEL BRET biosensor, Net BRET (D2LR [2]; time 11.3833 mins): 0.1394 and 0.145 and 0.1251
- Inhibition of cAMP production measured using a CAMYEL BRET biosensor, Net BRET (D2LR [2]; time 11.75 mins): 0.1471 and 0.1529 and 0.1151
- Inhibition of cAMP production measured using a CAMYEL BRET biosensor, Net BRET (D2LR [2]; time 12.1167 mins): 0.148 and 0.1471 and 0.1222
- Inhibition of cAMP production measured using a CAMYEL BRET biosensor, Net BRET (D2LR [2]; time 12.4833 mins): 0.1456 and 0.1415 and 0.132
- Inhibition of cAMP production measured using a CAMYEL BRET biosensor, Net BRET (D2LR [2]; time 12.85 mins): 0.1323 and 0.1432 and 0.12
- Inhibition of cAMP production measured using a CAMYEL BRET biosensor, Net BRET (D2LR [2]; time 13.2167 mins): 0.14 and 0.1381 and 0.1276
- Inhibition of cAMP production measured using a CAMYEL BRET biosensor, Net BRET (D2LR [2]; time 13.5833 mins): 0.1427 and 0.1424 and 0.1286
- Inhibition of cAMP production measured using a CAMYEL BRET biosensor, Net BRET (D2LR [2]; time 13.95 mins): 0.1347 and 0.1377 and 0.1287
- Inhibition of cAMP production measured using a CAMYEL BRET biosensor, Net BRET (D2LR [2]; time 14.3167 mins): 0.1428
- koff ([3]; 100 μM GppNHp, 37 °C, read-out: koff (converted)): 0.000167 s⁻¹
- Kd ([3]; read-out: pKd (affinity determined from kinetic parameters) (converted)): 0.0501 nM
